Reference: PMC10878397, “Development of Potent Dual BET/HDAC Inhibitors via Pharmacophore Merging and Structure-Guided Optimization” (ACS Chemical Biology, 2024)
Where two headings read alike, the source gives them in different places.

Legend:
[1] = target: BRD4 bromodomains (Homo sapiens, UniProt O60885); assay: NanoBRET target engagement assay, both bromodomains; assay type: cell-based
Protocol: The assay was performed as described previously.[17],[59] In brief, BRD4 bromodomains and full-length HDACs were obtained as plasmids cloned in-frame with a terminal NanoLuc fusion (Promega). Plasmids were transfected into HEK293T cells using FuGENE HD (Promega, E2312), and proteins were allowed to express for 20 h. Serially diluted inhibitor and the corresponding NanoBRET Tracer (Promega) at a concentration determined previously as the tracer KD, app were pipetted into white 384-well plates (Greiner #781207) for BRD assays or white 96-well plates (Corning #3600) for HDAC using an Echo acoustic dispenser (Labcyte). The corresponding protein-transfected cells were added and reseeded at a density of 2 × 10^5 cells/mL after trypsinization and resuspended in Opti-MEM without phenol red (Life Technologies). The system was allowed to equilibrate for 2 h at 37 °C/5% CO2 prior to BRET measurements. To measure BRET, NanoBRET NanoGlo substrate + Extracellular NanoLuc Inhibitor (Promega, N2540) was added as per the manufacturer’s protocol, and filtered luminescence was measured on a PHERAstar plate reader (BMG Labtech) equipped with a luminescence filter pair (450 nm BP filter (donor) and 610 nm LP filter (acceptor)). For lysed-mode NanoBRET experiments, digitonin (Promega, #G9441) was added as per the manufacturer’s instructions to a final concentration of […].

[2] = target: T1, BRD1 (Homo sapiens, UniProt O95696); assay: DSF bromodomain selectivity panel; assay type: binding; details: 10 μM compound
T1 construct: purchased in-house (SGC Frankfurt recombinant bromodomain DSF panel)
T1 sequence (O95696 whole entry): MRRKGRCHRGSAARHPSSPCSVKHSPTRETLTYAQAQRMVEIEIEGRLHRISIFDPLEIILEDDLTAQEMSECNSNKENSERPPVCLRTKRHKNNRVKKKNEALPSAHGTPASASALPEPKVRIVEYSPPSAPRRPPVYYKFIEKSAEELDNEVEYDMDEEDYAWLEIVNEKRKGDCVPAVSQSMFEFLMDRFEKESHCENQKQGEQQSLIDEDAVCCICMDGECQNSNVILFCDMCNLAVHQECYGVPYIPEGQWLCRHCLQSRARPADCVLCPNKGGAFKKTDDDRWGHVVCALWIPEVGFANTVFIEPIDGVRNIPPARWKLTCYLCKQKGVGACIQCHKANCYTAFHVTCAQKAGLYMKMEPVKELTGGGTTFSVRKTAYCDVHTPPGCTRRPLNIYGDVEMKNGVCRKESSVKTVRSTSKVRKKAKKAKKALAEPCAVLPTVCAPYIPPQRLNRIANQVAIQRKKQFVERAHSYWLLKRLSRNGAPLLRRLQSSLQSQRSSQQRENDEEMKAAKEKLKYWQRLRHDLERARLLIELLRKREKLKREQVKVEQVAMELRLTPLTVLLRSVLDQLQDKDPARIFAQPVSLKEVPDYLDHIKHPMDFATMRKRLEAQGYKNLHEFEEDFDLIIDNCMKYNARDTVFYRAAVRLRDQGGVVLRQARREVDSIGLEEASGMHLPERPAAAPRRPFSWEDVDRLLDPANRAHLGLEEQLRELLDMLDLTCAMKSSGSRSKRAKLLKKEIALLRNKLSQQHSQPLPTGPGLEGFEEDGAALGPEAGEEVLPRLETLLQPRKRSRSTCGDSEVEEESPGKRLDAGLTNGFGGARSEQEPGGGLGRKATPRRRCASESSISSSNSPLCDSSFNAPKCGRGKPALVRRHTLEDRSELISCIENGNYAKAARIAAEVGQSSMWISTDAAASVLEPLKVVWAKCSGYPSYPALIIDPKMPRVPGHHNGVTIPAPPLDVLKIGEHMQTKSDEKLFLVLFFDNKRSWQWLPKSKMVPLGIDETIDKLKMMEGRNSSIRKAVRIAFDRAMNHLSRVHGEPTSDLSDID
Protocol: (§1) The effects of inhibitor binding on the apparent melting temperature of recombinant bromodomains were determined by DSF in a 96-well plate (Starlab) at a protein concentration of 2 μM with 10 μΜ compound in buffer containing 25 mM HEPES, pH 7.5, 150 mM NaCl, and 0.5 mM TCEP. […] Protein unfolding profiles were recorded using an MX3005P real-time qPCR instrument (Agilent; excitation/emission filters = 492/610 nm) while increasing the temperature from 25 to 95 °C at a heating rate of 3 °C/min. Tm values were calculated after fitting the fluorescence curves to the Boltzmann equation. Differences in melting temperature upon compound binding are given as ΔTm = Tm (protein with inhibitor) – Tm (protein with DMSO control). Measurements were performed in triplicates.

[3] = target: T2, BRD3 (1) (Homo sapiens, UniProt Q15059); assay: DSF bromodomain selectivity panel; assay type: binding; details: 10 μM compound
T2 construct: BRD3 (1); purchased in-house (SGC Frankfurt recombinant bromodomain DSF panel)
T2 sequence (Q15059 24-144 limits assumed): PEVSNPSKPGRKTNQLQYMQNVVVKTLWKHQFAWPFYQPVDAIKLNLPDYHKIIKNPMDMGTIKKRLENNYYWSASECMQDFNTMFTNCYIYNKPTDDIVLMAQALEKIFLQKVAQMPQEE
Protocol: as §1

[4] = target: T3, BRDT(1) (Homo sapiens, UniProt Q58F21); assay: DSF bromodomain selectivity panel; assay type: binding; details: 10 μM compound
T3 construct: BRDT(1); purchased in-house (SGC Frankfurt recombinant bromodomain DSF panel)
Protocol: as §1

[5] = target: T4, PB1A(3) (Homo sapiens, UniProt Q86U86); assay: DSF bromodomain selectivity panel; assay type: binding; details: 10 μM compound
T4 construct: PB1A(3); purchased in-house (SGC Frankfurt recombinant bromodomain DSF panel)
T4 sequence (Q86U86 388-494 limits assumed): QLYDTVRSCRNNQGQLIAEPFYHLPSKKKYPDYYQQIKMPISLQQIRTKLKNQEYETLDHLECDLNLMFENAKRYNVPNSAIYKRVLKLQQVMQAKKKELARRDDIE
Protocol: as §1

[6] = target: T5, TRIM28 (Homo sapiens, UniProt Q13263); assay: DSF bromodomain selectivity panel; assay type: binding; details: 10 μM compound, construct containing tandem PHD-BD
T5 construct: purchased in-house (SGC Frankfurt recombinant bromodomain DSF panel)
T5 sequence (Q13263 whole entry): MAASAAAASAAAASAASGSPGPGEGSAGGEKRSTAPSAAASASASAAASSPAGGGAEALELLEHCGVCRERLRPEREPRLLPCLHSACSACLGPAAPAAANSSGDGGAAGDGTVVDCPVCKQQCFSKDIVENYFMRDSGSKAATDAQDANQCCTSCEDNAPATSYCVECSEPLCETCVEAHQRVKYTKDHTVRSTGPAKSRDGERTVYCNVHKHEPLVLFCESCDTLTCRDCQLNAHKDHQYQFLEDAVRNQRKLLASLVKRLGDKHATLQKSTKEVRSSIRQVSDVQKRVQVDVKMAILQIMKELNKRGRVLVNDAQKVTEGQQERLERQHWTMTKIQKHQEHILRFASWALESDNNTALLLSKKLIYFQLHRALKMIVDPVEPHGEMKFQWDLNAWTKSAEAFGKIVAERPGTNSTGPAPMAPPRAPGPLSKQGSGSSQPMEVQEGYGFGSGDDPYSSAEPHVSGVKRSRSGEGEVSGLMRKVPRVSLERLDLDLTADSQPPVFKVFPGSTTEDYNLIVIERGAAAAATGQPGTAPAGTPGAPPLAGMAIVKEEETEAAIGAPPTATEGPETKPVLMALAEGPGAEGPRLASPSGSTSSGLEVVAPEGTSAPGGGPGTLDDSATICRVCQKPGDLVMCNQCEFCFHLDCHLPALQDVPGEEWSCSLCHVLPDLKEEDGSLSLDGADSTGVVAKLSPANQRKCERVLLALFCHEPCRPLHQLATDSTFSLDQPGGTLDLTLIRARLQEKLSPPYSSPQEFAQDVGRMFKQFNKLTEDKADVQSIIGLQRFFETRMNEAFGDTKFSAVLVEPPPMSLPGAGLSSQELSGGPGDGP
Protocol: as §1

[7] = target: T6, BRD4 BD1 (Homo sapiens, UniProt O60885); assay: DSF thermal shift assay; assay type: binding; parameters: purchased in-house (SGC Frankfurt recombinant bromodomain DSF panel); details: for Mean Tm BRD4 (1), bromodomain panel: selectivity panel, technical triplicates
Protocol: as §1

[8] = target: BRD4 BD2 (Homo sapiens, UniProt O60885); assay: DSF thermal shift assay; assay type: binding; parameters: purchased in-house (SGC Frankfurt recombinant bromodomain DSF panel); details: for Mean Tm BRD4 (2), bromodomain panel: selectivity panel, technical triplicates
Protocol: as §1

[9] = target: T6, BRD4 BD1; assay: Isothermal titration calorimetry; assay type: binding; parameters: BRD4 BD1 (residues N44-E168) for structural studies was subcloned in the pNIC28-Bsa4 vector; His6 (followed by a TEV site) (N, cleaved yes); made in house; host or cells: Escherichia coli BL21(D3)-R3-pRARE2 Rosetta; details: for ITC -TΔS / ITC Ka / ITC n (stoichiometry) / ITC ΔG / ITC ΔH / ITC ΔS / Kd: 15 °C
Protocol: ITC measurements were performed using a Nano ITC microcalorimeter (TA Instruments, New Castle, Pennsylvania). For all experiments, reverse titration was performed (syringe containing the protein solution; cell containing the ligand) in ITC buffer containing 25 mM HEPES, pH 7.5, 150 mM NaCl, 0.5 mM TCEP, and 5% glycerol. All compounds were diluted from 50 mM DMSO stocks to 20 μΜ in ITC buffer, and BRD4-BD1 was diluted to 120 μΜ in a DMSO-adjusted ITC buffer. BRD4-BD1 (120 μΜ) was titrated into the compound solution (20 μΜ) with an initial injection (4 μL) followed by 29 identical injections (8 μL), at a rate of 0.5 μL/s and with 150 or 200 s intervals. All experiments were performed at 15 °C while stirring at 350 rpm. The heat of dilution was determined by independent titrations (protein into buffer) and subtracted from the experimental raw data. Data were processed using NanoAnalyze software (version 3.10.0) provided by the instrument manufacturer. The first injection was excluded from the analysis, and fitted curves were generated by applying the independent model (single binding site) to the raw data. Complete thermodynamic data analysis can be found in Table S2.

[10] = system: MYC mRNA in NMC HCC2429 cells; assay: Quantitative RT-PCR of oncogenic drivers; assay type: cell-based; details: HCC2429, 6 h, 1 μΜ compound
Protocol: (§2) Total RNA was extracted from cell culture using the Maxwell RSC simply RNA Cells Kit (Promega) according to the manufacturer’s protocol. cDNA was synthesized using PrimeScript Reverse Transcriptase (TakaRa) and amplified using homemade PCR master mix. The amplicon was detected by EvaGreen Dye using a LightCycler 480 instrument (Roche). PCR conditions were 5 min at 95 °C, followed by 45 cycles of 95 °C for 10 s, 59 °C for 10 s, and 72 °C for 20 s. The relative gene expression levels were normalized to GUSB and calculated using the 2^–ΔΔC^t method.

[11] = system: TP63 mRNA in NMC HCC2429 cells; assay: Quantitative RT-PCR of oncogenic drivers; assay type: cell-based; details: HCC2429, 6 h, 1 μΜ compound
Protocol: as §2

[12] = 95% confidence level, read-out: ITC Kd

| SMILES | Mean Tm BRD1 [2] [K] | Mean Tm BRD3 (1) [3] [K] | Mean Tm BRDT(1) [4] [K] | Mean Tm PB1A(3) [5] [K] | Mean Tm TRIM28 [6] [K] | Mean Tm BRD4 (1), bromodomain panel ([7]; 10 μM compound) [K] | Mean Tm BRD4 (2), bromodomain panel ([8]; 10 μM compound) [K] | ITC -TΔS [9] [kcal/mol] | ITC Ka [9] [Mˉ¹] | ITC n (stoichiometry) [9] | ITC ΔG [9] [kcal/mol] | ITC ΔH [9] [kcal/mol] | ITC ΔS [9] [cal/mol·K] | Kd [9, 12] [nM] | MYC mRNA levels [10] | TP63 mRNA levels [11] | further results |
| --- | --- | --- | --- | --- | --- | --- | --- | --- | --- | --- | --- | --- | --- | --- | --- | --- | --- |
| Cn1cc(-c2ccc(C(=O)Nc3ccccc3N)cc2)c2cc[nH]c2c1=O [NB462] | 0.2 ± 0.1 | 3.8 ± 0.3 | 3.0 ± 0.2 | 0.5 ± 0.2 | 0.6 ± 0.4 | 3.6 ± 0.1 | 4.6 ± 0.1 | 1.371 | 6.58E+06 | 0.996 ± 0.029 | -8.99 | -10.36 ± 0.501 | -4.759 | 152 |  |  | EC50 ([1]; BD1 and BD2, intact cells, read-out: NanoBRET EC50 BRD4 bromodomains): 100 to 400 nM; DSF ΔTm BRD4 BD1 ([7]; 10 μM compound, 2 μM protein): 3.9 ± 0.4 K; ΔTm at 10 µM ([7]; read-out: DSF ΔTm BRD4 BD1, 10 μM compound, 2 μM protein): 4 to 5 °C; DSF ΔTm BRD4 BD2 ([8]; 10 μM compound, 2 μM protein): 4.5 ± 0.1 K; ΔTm at 10 µM ([8]; read-out: DSF ΔTm BRD4 BD2, 10 μM compound, 2 μM protein): 4 to 5 °C |
| Cn1cc(-c2ccc(C(=O)Nc3ccccc3N)nc2)c2cc[nH]c2c1=O [NB500] |  |  |  |  |  |  |  | -1.832 | 2.18E+07 | 1.003 ± 0.022 | -9.676 | -7.844 ± 0.360 | 6.358 | 45.8 | strongest effect | strongest effect | ΔTm at 10 µM ([7]; 10 μM compound, 2 μM protein, read-out: DSF ΔTm BRD4 BD1): 4.2 ± 0.4 °C; ΔTm at 10 µM ([8]; 10 μM compound, 2 μM protein, read-out: DSF ΔTm BRD4 BD2): 4.7 ± 0.4 °C; fold increased binding affinity to BRD4 BD1 in ITC vs NB462 [9]: 3 fold; Kd ([9]; read-out: ITC Kd BRD4 BD1): 46 nM |
| Cn1cc(-c2ccc(C(=O)Nc3cc(-c4ccccc4)ccc3N)cc2)c2cc[nH]c2c1=O [NB503] | 1.1 ± 0.1 | 3.8 ± 0.4 | 3.3 ± 0.1 | 0.0 ± 0.0 | 0.0 ± 0.2 | 5.5 ± 0.1 | 5.3 ± 0.2 |  |  |  |  |  |  |  | strongest effect | strongest effect |  |
| Cn1cc(-c2ccc(C(=O)Nc3cc(-c4ccccc4)ccc3N)nc2)c2cc[nH]c2c1=O [NB512] |  |  |  |  |  |  |  |  |  |  |  |  |  |  |  |  | EC50 ([1]; intact and permeabilized cells, read-out: NanoBRET EC50 both BRD4 bromodomains): 100 to 400 nM |
